Assay results from PMC10818259, “Antioxidant and Inhibitory Activities of Filipendula glaberrima Leaf Constituents against HMG-CoA Reductase and Macrophage Foam Cell Formation” (Molecules, 2024).

Tests used:
[1] = target: T1, HMG-CoA reductase (HMGR) (Homo sapiens, UniProt P04035); assay: HMG-CoA reductase (HMGR) inhibition assay, NADPH oxidation at 340 nm; format: biochemical
T1 sequence (P04035 426-888 limits assumed): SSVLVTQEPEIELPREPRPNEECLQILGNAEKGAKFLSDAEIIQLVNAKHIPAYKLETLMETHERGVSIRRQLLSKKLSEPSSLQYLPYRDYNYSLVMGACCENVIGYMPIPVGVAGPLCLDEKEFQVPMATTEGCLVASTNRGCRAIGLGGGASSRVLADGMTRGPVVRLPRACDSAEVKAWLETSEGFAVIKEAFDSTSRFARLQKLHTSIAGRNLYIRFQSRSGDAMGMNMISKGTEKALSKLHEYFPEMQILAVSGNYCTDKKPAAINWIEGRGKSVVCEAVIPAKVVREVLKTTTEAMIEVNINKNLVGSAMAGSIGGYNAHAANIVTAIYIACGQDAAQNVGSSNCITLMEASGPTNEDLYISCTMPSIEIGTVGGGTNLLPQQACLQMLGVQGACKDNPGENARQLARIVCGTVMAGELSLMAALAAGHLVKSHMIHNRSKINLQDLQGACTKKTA
Procedure: The HMGR activity assay was optimized using a 96-well microplate reader to measure nicotinamide adenine dinucleotide phosphate (NADPH) oxidation during enzyme turnover. Each well was loaded with a mixture comprising 89 μL of 50 mM sodium phosphate buffer (pH 6.8), 0.8 mM NADPH, and 2 μg of the enzyme (2–8 units/mg). To initiate the reaction, 1 μL of the test sample and 10 μL of 0.8 mM HMG-CoA were introduced to the well. […] The activity of HMGR was assessed by monitoring the reduction in NADPH absorbance at 340 nm for a duration of 900 s at 37 °C.

[2] = tested on: lipid peroxidation in liver homogenate; assay: Inhibitory effect on lipid peroxidation (LPO) in liver homogenate, TBARS; format: biochemical, Sprague Dawley rats; settings: isolates and standards; rat liver homogenate; mean ± SD, n = 3; read-out: Antioxidant Activity (IC50) LPO
From the text: Assay for inhibitory effect of lipid peroxidation. Male Sprague Dawley rats were used in the […]
Technology (approval number: […]-2018-081). Experimental animals were […]
anesthetized with isoflurane and dissected. A 0.15 M ice-cold KCl solution was perfused through the liver portal vein to remove blood from the liver and extract the liver. The liver was homogenized in KCl solution at 10 times the liver’s weight , and the protein concentration was quantified by the Bradford protein method using bovine serum albumin as a standard. A lipid peroxidation test was performed using a slightly modified version of the method described.
Reaction mixtures consisted of 300 μL of liver ho mogenate (11 mg protein/mL) , 300 μL of 50 mM Tris -HCl buffer (pH 7.5) containing 10 μM FeSO 4, and 0.4 mM ascorbic acid. Test samples (10 μL) or DMSO blanks were added to the reaction mixture and incubated at 37 °C for 30 min. After incubation, lipid peroxidation was measured by forming thiobarbituric acid reactive substance s. The mixture was subjected to a reaction at 90 °C for 30 min, followed by cooling and subsequent centrifugation (5,000 × g) for 10 min. The absorbance of the resulting supernatant was d etermined at 535 nm, and the percentage of lipid peroxidation inhibition by the sample was computed. DMSO was utilized as a control instead of the test drug, and the […]

[3] = DPPH radical scavenging assay; settings: read-out: Antioxidant Activity (IC50) DPPH, isolates and standards, mean ± SD, n = 3
Procedure: As positive controls, ascorbic acid, quercetin, resveratrol, and Trolox were employed. Triplicate measurements were performed for each sample, and the mean values were determined.
DPPH radical scavenging assay.
The extracts and isolates were dissolved in dimethyl sulfoxide (DMSO) at concentrations
ranging from 0.1 to 10 mg/mL and 0.1 to 10 mM, respectively. Subsequently, they were
combined with an ethanol solution of DPPH (100 μM). The DPPH solution (190 μL per well)
and the samples (10 μL per well) were incubated in a 96-well microplate at 37 °C for 30 minutes
under dark conditions. The absorbance at 515 nm was quantified using a microplate reader, and
the percentage inhibition (%) of each sample was calculated by comparing it with the control
group treated with DMSO. Linear regression analysis was employed to estimate the IC50 values,
which indicated the concentration of test samples required to inhibit 50% of the free radicals.

[4] = Superoxide anion radical scavenging assay (xanthine/xanthine oxidase, NBT); format: biochemical; settings: isolates and standards; mean ± SD, n = 3; read-out: Antioxidant Activity (IC50) Superoxide Anion Radical
From the text: Superoxide anion radical scavenging assay.

[5] = tested on: THP-1 macrophage foam cells; assay: ox-LDL-induced macrophage foam cell formation, Oil Red O staining; format: cell-based; settings: Homo sapiens, 50 μg/mL ox-LDL, 16 h, positive control, read-out: Inhibitory effect on foam cell formation
Procedure: This approach aimed to examine the impact of these substances on lipid accumulation and the formation of foam cells. First, we observed the effects of different concentrations (20, 40, and 60 μg/mL) of the solvent extracts on the THP-1 macrophage activity. […] As a result, we selected and optimized the concentration of 50 μg/mL for the solvent extract to be used in the subsequent experiments. […] Following the extraction of the intracellular dye using isopropanol, a quantitative assessment of the intracellular lipid content was conducted.
THP-1 cells (ATCC, TIB-202, Manassas, VA, USA) were obtained and maintained in RPMI-1640 medium (Cytiva, UT, USA), supplemented with 10% fetal bovine serum (FBS; Hyclone, Cytiva, Logan, UT, USA), penicillin (100 U/mL), streptomycin (100 μg/mL), and 2-mercaptoethanol (Sigma-Aldrich, Saint Louis, MO, USA) at a final concentration of 0.05 mM. The cells were cultured at 37 °C in a 5% CO2 atmosphere with humidity. The THP-1 cells in the suspension were treated with 50 nM phorbol-12-myristate-13-acetate (Sigma-Aldrich, USA) for 48 h. […]
THP-1 cells were seeded in 24-well plates at a density of 5 × 10^5 cells/mL and pretreated as described above. […] The absorbance at 450 nm was measured using a multi-plate reader (Synergy Neo, BioTek Instruments, Inc., Winooski, VT, USA) and statistically processed.

Row | SMILES | IC50 [1] [µM] | IC50 [2] [µM] | IC50 [3] [µM] | IC50 [4] [µM] | HMGR inhibition, result in words [1] | inhibition at 5 µM [5] [%] | IC50 ([3]; listed as quercetin) [µM]
1 | COC(=O)c1cc(O)c(O)c(O)c1Oc1cc2c(c(O)c1O)-c1c(cc(O)c(O)c1O)C(=O)OC1C(COC2=O)OC(O)C(OC(=O)c2cc(O)c(O)c(O)c2)C1OC(=O)c1cc(O)c(O)c(O)c1 (stereo not shown) [Compound 1, Rugosin B methyl ester] | 1.46 ± 0.22 | 3.54 ± 0.29 | 3.62 ± 0.57 | 4.29 ± 0.23 |  |  | 
2 | O=C(OC1C(O)OC2COC(=O)c3cc(Oc4c(C(=O)O)cc(O)c(O)c4O)c(O)c(O)c3-c3c(cc(O)c(O)c3O)C(=O)OC2C1OC(=O)c1cc(O)c(O)c(O)c1)c1cc(O)c(O)c(O)c1 (stereo not shown) [Compound 2, rugosin B] | 17.7 ± 0.04 | 6.02 ± 0.14 | 3 ± 0.08 | 5.53 ± 0.21 |  |  | 
3 | COC(=O)c1cc(O)c(O)c(O)c1Oc1cc2c(c(O)c1O)-c1c(cc(O)c(O)c1O)C(=O)O[C@H]1[C@H](OC(=O)c3cc(O)c(O)c(O)c3)[C@@H](OC(=O)c3cc(O)c(O)c(O)c3)[C@H](OC(=O)c3cc(O)c(O)c(O)c3)O[C@@H]1COC2=O [Compound 3, rugosin A methyl ester] | 8.4 ± 0.84 | 3.83 ± 0.52 | 4.27 ± 0.45 | 4.25 ± 0.11 |  |  | 
4 | O=C(O[C@@H]1O[C@@H]2COC(=O)c3cc(Oc4c(C(=O)O)cc(O)c(O)c4O)c(O)c(O)c3-c3c(cc(O)c(O)c3O)C(=O)O[C@H]2[C@H](OC(=O)c2cc(O)c(O)c(O)c2)[C@H]1OC(=O)c1cc(O)c(O)c(O)c1)c1cc(O)c(O)c(O)c1 [Compound 4, rugosin A] | 12.2 ± 0.5 | 3.75 ± 0.52 | 3.19 ± 0.13 | 3.21 ± 0.05 |  |  | 
5 | O=C(O[C@@H]1O[C@@H]2COC(=O)c3cc(O)c(O)c(O)c3-c3c(cc(O)c(O)c3O)C(=O)O[C@H]2[C@H](OC(=O)c2cc(O)c(O)c(O)c2)[C@H]1OC(=O)c1cc(O)c(O)c(O)c1)c1cc(O)c(O)c(O)c1 [Compound 5, eugeniin] | 26.7 ± 0.9 | 3.61 ± 0.34 | 4.34 ± 0.17 | 4.75 ± 0.14 |  |  | 
6 | O=C(OC1C(O)OC2COC(=O)c3cc(O)c(O)c(O)c3-c3c(cc(O)c(O)c3O)C(=O)OC2C1OC(=O)c1cc(O)c(O)c(O)c1)c1cc(O)c(O)c(O)c1 (stereo not shown) [Compound 6, tellimagrandin I] | > 50 | 3.93 ± 0.53 | 4.7 ± 0.14 | 4.1 ± 0.53 |  |  | 
7 | O=C(OC[C@H]1O[C@@H](OC(=O)c2cc(O)c(O)c(O)c2)[C@H](OC(=O)c2cc(O)c(O)c(O)c2)[C@@H](OC(=O)c2cc(O)c(O)c(O)c2)[C@@H]1OC(=O)c1cc(O)c(O)c(O)c1)c1cc(O)c(O)c(O)c1 [Compound 7, 1,2,3,4,6-penta-O-galloyl-β-D-glucose] | 4.98 ± 0.18 | 3.87 ± 0.61 | 3.81 ± 0.19 | 4.47 ± 0.07 |  |  | 
8 | O=C(OC[C@H]1OC(O)[C@H](OC(=O)c2cc(O)c(O)c(O)c2)[C@@H](OC(=O)c2cc(O)c(O)c(O)c2)[C@@H]1OC(=O)c1cc(O)c(O)c(O)c1)c1cc(O)c(O)c(O)c1 (stereo partly drawn) [Compound 8, 2,3,4,6-tetra-O-galloyl-D-glucose] | 13.8 ± 1.53 | 3.54 ± 0.15 | 20.9 ± 0.98 | 3.6 ± 0.23 |  |  | 
9 | O=C(OC[C@H]1O[C@@H](OC(=O)c2cc(O)c(O)c(O)c2)[C@H](OC(=O)c2cc(O)c(O)c(O)c2)[C@@H](OC(=O)c2cc(O)c(O)c(O)c2)[C@@H]1O)c1cc(O)c(O)c(O)c1 [Compound 9, 1,2,3,6-tetra-O-galloyl-β-D-glucose] | 41.5 ± 3.9 | 5.88 ± 0.13 | 3.94 ± 0.25 | 4.64 ± 0.45 | weak effect |  | 
10 | O=C(O)[C@H]1O[C@@H](Oc2c(-c3ccc(O)c(O)c3)oc3cc(O)cc(O)c3c2=O)[C@H](O)[C@@H](O)[C@@H]1O [Compound 10, quercetin 3-glucuronic acid] | > 50 | 34.1 ± 2.98 | 15.7 ± 0.15 | 21.5 ± 2.03 |  |  | 
11 | O=C(O)[C@H]1O[C@@H](Oc2c(O)cc(O)c3c(=O)c(O)c(-c4ccc(O)cc4)oc23)[C@H](O)[C@@H](O)[C@@H]1O [Compound 11, kaempferol 8-O-glucuronic acid] | > 50 | > 50 | 23 ± 0.45 | 17.7 ± 0.3 |  |  | 
12 | CC[C@H](C)C(=O)O[C@H]1C[C@H](O)C=C2C=C[C@H](C)[C@H](CC[C@@H](O)C[C@@H](O)CC(=O)O)[C@H]21 [Pravastatin] |  |  |  |  |  | 77 | 
13 | O=c1c(O)c(-c2ccc(O)c(O)c2)oc2cc(O)cc(O)c12 [Quercetin, reference compound] |  | 7.45 ± 1.33 | 17.3 ± 1.09 | 21.3 ± 0.34 |  |  | 42.1
14 | Oc1ccc(/C=C/c2cc(O)cc(O)c2)cc1 [Resveratrol, reference compound] |  | 47.6 ± 6.35 | 42.1 ± 1.91 | > 50 |  |  | 
15 | Cc1c(C)c2c(c(C)c1O)CCC(C)(C(=O)O)O2 (stereo not shown) [Trolox, reference compound] |  | 33.2 ± 3.6 | 31.3 ± 1.27 | > 50 |  |  | 
16 | O=C1O[C@H]([C@@H](O)CO)C(O)=C1O [Vitamin C, ascorbic acid, reference compound] |  |  | 31.7 ± 0.21 | > 50 |  |  | 
